Laboratory results reported in patent US8377468B2, “Dry wound dressing and drug delivery system” (Rexaderm, Inc., priority 2006, dated 2013).

Tested on: diabetic leg ulcer
Test: Case report: treatment of a diabetic leg ulcer
Type: in vivo, human
Description: FIG. 1-6 are a series of 6 pictures taken sequentially after treatment of a leg ulcer, which had persisted for over 6 months without healing, using the dry dressing described herein that contained human cellular fibronectin (cFN).
The cFN dressing was held on with either a 4×4 sponge and tape or with a BAND-AID™ (adhesive bandage).
A few months after the lesion occurred, a dermatologist obtained a biopsy sample, and the ulcer became infected, resulting in a larger lesion that was greatly inflamed. The lesion was treated with Avelox™. It appeared to heal in a few months, when the patient removed what appeared to be dead skin. The lesion opened again, and the patient treated it with Neosporin, Iodine, and Merthiolate. The dermatologist took a swab of the lesion. After the patient used the Bactro-Ban (Muciprocin) recommended by the dermatologist for two weeks, the wound became worse so the patient sealed it with Merthiolate. A bleeding lesion the size of a nickel persisted. The patient began treatment with cFN wound dressing of Example 2 about two weeks later, changing the dressing every 48 hours except for the first day. (The first change was at 24 hours). For the first 4 days, the material was fixed to the wound with a 4×4 gauze pad and an ACE bandage, then with a Band-Aid. […]

In the case of `C/C(=C\C(=O)OCCCCCCCCC(=O)O)C[C@@H]1OC[C@H](C[C@@H]2O[C@H]2[C@@H](C)[C@H](C)O)[C@@H](O)[C@H]1O` [Bactro-Ban, Muciprocin], the lesion size (FIG. 1, after wound was treated for two weeks) is reported as 12-15 mm and the wound outcome (used for two weeks) is reported as “became worse”.
